Reference: BigSolDB 2.1

Structure (SMILES): Nc1cnc(Cl)cn1
- solubility (mole fraction) (in ethanol, 278.15 K): 0.00222
- solubility (mole fraction) (in ethanol, 283.15 K): 0.00302
- solubility (mole fraction) (in ethanol, 288.15 K): 0.00388
- solubility (mole fraction) (in ethanol, 293.15 K): 0.00477
- solubility (mole fraction) (in ethanol, 298.15 K): 0.0058
- solubility (mole fraction) (in ethanol, 303.15 K): 0.00692
- solubility (mole fraction) (in ethanol, 308.15 K): 0.00813
- solubility (mole fraction) (in ethanol, 313.15 K): 0.00961
- solubility (mole fraction) (in ethanol, 318.15 K): 0.0111
- solubility (mole fraction) (in ethanol, 323.15 K): 0.0131
- solubility (mole fraction) (in ethylene glycol, 278.15 K): 0.000321
- solubility (mole fraction) (in ethylene glycol, 283.15 K): 0.000398
- solubility (mole fraction) (in ethylene glycol, 288.15 K): 0.000506
- solubility (mole fraction) (in ethylene glycol, 293.15 K): 0.000615
- solubility (mole fraction) (in ethylene glycol, 298.15 K): 0.000747
- solubility (mole fraction) (in ethylene glycol, 303.15 K): 0.000868
- solubility (mole fraction) (in ethylene glycol, 308.15 K): 0.00102
- solubility (mole fraction) (in ethylene glycol, 313.15 K): 0.00117
- solubility (mole fraction) (in ethylene glycol, 318.15 K): 0.00136
- solubility (mole fraction) (in ethylene glycol, 323.15 K): 0.00157
- solubility (mole fraction) (in methanol, 278.15 K): 0.00319
- solubility (mole fraction) (in methanol, 283.15 K): 0.00442
- solubility (mole fraction) (in methanol, 288.15 K): 0.00573
- solubility (mole fraction) (in methanol, 293.15 K): 0.0073
- solubility (mole fraction) (in methanol, 298.15 K): 0.00915
- solubility (mole fraction) (in methanol, 303.15 K): 0.0109
- solubility (mole fraction) (in methanol, 308.15 K): 0.0127
- solubility (mole fraction) (in methanol, 313.15 K): 0.0149
- solubility (mole fraction) (in methanol, 318.15 K): 0.0173
- solubility (mole fraction) (in methanol, 323.15 K): 0.0201
- solubility (mole fraction) (in n-propanol, 278.15 K): 0.000781
- solubility (mole fraction) (in n-propanol, 283.15 K): 0.001
- solubility (mole fraction) (in n-propanol, 288.15 K): 0.00126
- solubility (mole fraction) (in n-propanol, 293.15 K): 0.00152
- solubility (mole fraction) (in n-propanol, 298.15 K): 0.00181
- solubility (mole fraction) (in n-propanol, 303.15 K): 0.00214
- solubility (mole fraction) (in n-propanol, 308.15 K): 0.00252
- solubility (mole fraction) (in n-propanol, 313.15 K): 0.00291
- solubility (mole fraction) (in n-propanol, 318.15 K): 0.00334
- solubility (mole fraction) (in n-propanol, 323.15 K): 0.00383
- solubility (mole fraction) (in water, 278.15 K): 3.69e-05
- solubility (mole fraction) (in water, 283.15 K): 4.76e-05
- solubility (mole fraction) (in water, 288.15 K): 6.03e-05
- solubility (mole fraction) (in water, 293.15 K): 7.35e-05
- solubility (mole fraction) (in water, 298.15 K): 8.88e-05
- solubility (mole fraction) (in water, 303.15 K): 0.000106
- solubility (mole fraction) (in water, 308.15 K): 0.000123
- solubility (mole fraction) (in water, 313.15 K): 0.000141
- solubility (mole fraction) (in water, 318.15 K): 0.000161
- solubility (mole fraction) (in water, 323.15 K): 0.000182
